Test results published in US10085955B2, “Methods and compositions for treatment of demyelinating diseases” (Pathologica LLC, priority 2013, dated 2018).

Legend:
[1] = test system: MOG-induced experimental autoimmune encephalomyelitis (EAE); experiment: First MOG EAE protocol (murine multiple sclerosis model); format: in vivo, C57BL/6 mice; conditions: first 28-day study; MGBG 30 mpk BID, fingolimod 3 mpk QD; throughout/duration of experiment
Text: An experimental murine model of multiple sclerosis employing a myelin oligodendrocyte glycoprotein (MOG) peptide to induce experimental autoimmune encephalomyelitis (EAE) was employed to determine the efficacy of MGBG in preventing and treating that disease. Because of its many similarities to MS, EAE is commonly used to study pathogenesis of autoimmunity, CNS inflammation, demyelination, cell trafficking, and tolerance induction. EAE is characterized by paralysis (in some models the paralysis is remitting-relapsing), CNS inflammation and demyelination. EAE is mediated primarily by dendritic cells, myelin-specific T cells (e.g. Th1 and Th17), and M1 macrophages. B cells may also play a role in some models of EAE. Body weight also tracks disease progression. EAE is induced in C57BL/6 mice by immunization with MOG35-55 or MOG1-125 in CFA emulsion followed by administration of pertussis toxin (PTX) in PBS. The emulsion provides antigen which initiates expansion and differentiation of MOG-specific autoimmune T cells. PTX enhances EAE development by providing additional adjuvant and facilitating entrance of autoimmune T cells into the CNS.
Chronic EAE develops in C57BL/6 mice after immunization with an emulsion of MOG35-55/CFA or MOG1-125/CFA followed by injection of pertussis toxin. This model is used to test the potential of compounds to prevent or mitigate EAE disease. It can be run with the compound dosed from the time of immunization (prophylactic treatment), or with the aim of reversing the course of disease and facilitating recovery by dosing the compound from the time of EAE onset (therapeutic treatment). The model uses female C57BL/6 mice of age 10 to 14 weeks at the start of the study. Typically, EAE develops 8-18 days after immunization. EAE development is usually followed for 4 weeks (28 days) after immunization.
In prophylactic studies, treatment begins before disease onset, at the time of immunization and group assignment. Mice are assigned to treatment groups in a balanced manner to achieve groups with similar distributions of body weights. Prophylactic studies assess if treatment will affect the course of disease both before and after the first clinical signs of EAE. To compensate for the stress of treatment in prophylactic treatment studies and achieve the target disease severity, EAE may be induced with a higher dose of pertussis toxin than used in therapeutic studies. The dose of pertussis toxin is based on expected stress due to dosing (route, frequency, and formulation of vehicle).
Clinically, EAE progression is scored on a scale of 0 to 5, wherein each score represents the following clinical observations:
Inflammatory foci of approximately 20 cells were counted in each H&E stained section. When inflammatory infiltrates consisted of more than 20 cells, an estimate was made of how many foci of 20 cells were present.
The demyelination score represents an estimate of demyelinated area for each section as follows:
Unless otherwise noted, statistical analysis was performed as follows: disease incidence compared using chi-square test; mean day of EAE onset, change in body weight, and number of apoptotic cells compared using 2-tailed Student's t-test; median day of EAE onset compared using Wilcoxon's survival test; mean maximum score (MMS), end score, and demyelination scores (LFB and H&E) compared using Wilcoxon's non-parametric test.
Ten week old female C57BL/6 mice weighing 18-23 g (Taconic Farms) were divided into four groups: mock immunized (n=3) and three MOG-immunized groups receiving MGBG at 30 mpk BID (as the di-HCl monohydrate with a correction factor of 1.49), fingolimod (FTY720) at 3 mpk QD with a second mock vehicle dose, or 0.9% saline vehicle BID (n=12 each). […]

[2] = test system: PGE2 production in carrageenan air pouch; experiment: Carrageenan air pouch model; format: in vivo, Lewis rats; conditions: rat pouch fluid, 3 or 24 hours post-carrageenan; naproxen 10 mg/kg, dexamethasone 1 mg/kg
Text: Injection of air subcutaneously will induce the formation of a connective tissue cavity lined with cells that resemble and function like a synovial lining. This method is commonly known as the Air Pouch Model and is a useful animal model of inflammation that can be generated in a relatively short period of time. The air pouch may be created by subcutaneous (SQ) injection of a volume of sterile air in the dorsal neck region. The model may be used to test the efficacy and potency of compounds such as polyamine analogues and polyamine biosynthesis inhibitors such as MGBG in reducing various cellular and biochemical indicators of inflammation when administered as an oral (PO) gavage administration. Healthy Male Lewis rats (Charles River Laboratories, Wilmington, Mass.) weighing between 175-200 g were used. […] A correction factor of 1.49 was used to account for the dihydrochloride salt/monohydrate form of MGBG. […] Air pouches were formed on the dorsum of the rats during the last 4 days of MGBG or vehicle administration prior to carrageenan injection. Briefly, rats were anesthetized with isoflurane, during which dorsal hair was removed and 20 mL of sterile air was injected subcutaneously into the intrascapular region. Pouches were allowed to develop for the next 4 days, with re-inflation (to maintain pouch volume) of pouches 1 day prior to carrageenan injection. One hour prior to carrageenan injection, animals were given their last dose of drug (MGBG, vehicle, naproxen, or dexamethasone). A 1% suspension of carrageenan (2 mL; FMC BioPolyer, Philadelphia, Pa.) suspended in saline was injected into the pouch cavity. At either 3 hours or 24 hours post-carrageenan injection, rats were euthanized by CO2 asphyxiation and 2.5 mL of PBS (Sigma Chemical, St. Louis, Mo.) was injected directly into the pouch. The pouch was opened with surgical scissors and the pouch fluid was collected using a transfer pipette. One aliquot was collected for measurement of total cell count with differential, and the other aliquot for PGE2 determination. […]

**Q.** For `CCCCCCCCc1ccc(CCC(N)(CO)CO)cc1` [fingolimod], which “mean clinical score (scale 0 to 5)” value [1] is on record?
**A.** Its value is 0.

**Q.** For `COc1ccc2cc([C@H](C)C(=O)O)ccc2c1` [naproxen], which “production of PGE2 (inflammatory and basal levels)” value [2] is on record?
**A.** Its value is “inhibited production of both inflammatory and basal levels”.
